#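 Compound exposure: 48 hours, 5 concentrations, 96-well plates. GI50 marks 50% less growth. TGI: concentration producing complete growth inhibition.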
# Assays:
# Assay in all cases: NCI-60 cell line screen, 48 h
# SK-MEL-28 melanoma = test system: SK-MEL-28 melanoma
# NCI-H226 lung = test system: NCI-H226 lung
# DU-145 prostate = test system: DU-145 prostate
# CCRF-CEM leukemia = test system: CCRF-CEM leukemia
# ACHN renal = test system: ACHN renal
# SNB-19 CNS = test system: SNB-19 CNS
# HOP-92 NSCLC = test system: HOP-92 NSCLC
# NCI/ADR-RES ovarian = test system: NCI/ADR-RES ovarian
# HOP-62 NSCLC = test system: HOP-62 NSCLC
# HCT-15 colon = test system: HCT-15 colon
# SK-MEL-2 melanoma = test system: SK-MEL-2 melanoma
# RXF 393 renal = test system: RXF 393 renal
# A549 NSCLC = test system: A549 NSCLC
# A498 renal = test system: A498 renal
# MDA-MB-231 breast = test system: MDA-MB-231 breast
# MCF7 breast = test system: MCF7 breast
# LOX IMVI melanoma = test system: LOX IMVI melanoma
# MOLT-4 leukemia = test system: MOLT-4 leukemia
# UO-31 renal = test system: UO-31 renal
# M14 melanoma = test system: M14 melanoma
# HCC-2998 colon = test system: HCC-2998 colon
# UACC-257 melanoma = test system: UACC-257 melanoma
# OVCAR-4 ovarian = test system: OVCAR-4 ovarian
# BT-549 breast = test system: BT-549 breast
# TK-10 renal = test system: TK-10 renal
# OVCAR-8 ovarian = test system: OVCAR-8 ovarian
# KM12 colon = test system: KM12 colon
# SK-OV-3 ovarian = test system: SK-OV-3 ovarian
# COLO 205 colon = test system: COLO 205 colon
# NCI-H460 lung = test system: NCI-H460 lung
# CAKI-1 renal = test system: CAKI-1 renal
# RPMI-8226 leukemia = test system: RPMI-8226 leukemia
# HT29 colon = test system: HT29 colon
# OVCAR-5 ovarian = test system: OVCAR-5 ovarian
# HS 578T breast = test system: HS 578T breast
# HL-60(TB) leukemia = test system: HL-60(TB) leukemia
# SF-295 CNS = test system: SF-295 CNS
# T-47D breast = test system: T-47D breast
# MALME-3M melanoma = test system: MALME-3M melanoma
# SNB-75 CNS = test system: SNB-75 CNS
# OVCAR-3 ovarian = test system: OVCAR-3 ovarian
# SK-MEL-5 melanoma = test system: SK-MEL-5 melanoma
# IGROV1 ovarian = test system: IGROV1 ovarian
# U251 CNS = test system: U251 CNS
# NCI-H522 lung = test system: NCI-H522 lung
# 786-0 renal = test system: 786-0 renal
# K-562 leukemia = test system: K-562 leukemia
# SF-539 CNS = test system: SF-539 CNS
# SR leukemia = test system: SR leukemia
# SF-268 CNS = test system: SF-268 CNS
# MDA-MB-435 = test system: MDA-MB-435
# SW-620 colon = test system: SW-620 colon
# HCT-116 colon = test system: HCT-116 colon
# SN12C renal = test system: SN12C renal
compound,measurement,setting,value
CCOC(=O)N1CCN(c2nc(Nc3cc(C)[nH]n3)c3ccccc3n2)CC1,GI50,SK-MEL-28 melanoma,12.2 µM
same,TGI,SK-MEL-28 melanoma,91.3 µM
same,GI50,NCI-H226 lung,1.58 µM
same,TGI,NCI-H226 lung,10.8 µM
same,GI50,DU-145 prostate,3.89 µM
same,TGI,DU-145 prostate,40 µM
same,GI50,CCRF-CEM leukemia,10.1 µM
same,TGI,CCRF-CEM leukemia,56.2 µM
same,GI50,ACHN renal,0.707 µM
same,TGI,ACHN renal,> 100 µM
same,GI50,SNB-19 CNS,10.3 µM
same,TGI,SNB-19 CNS,> 100 µM
same,GI50,HOP-92 NSCLC,1.92 µM
same,TGI,HOP-92 NSCLC,11.9 µM
same,GI50,NCI/ADR-RES ovarian,4.25 µM
same,TGI,NCI/ADR-RES ovarian,37 µM
same,GI50,HOP-62 NSCLC,2.81 µM
same,TGI,HOP-62 NSCLC,> 100 µM
same,GI50,HCT-15 colon,0.992 µM
same,TGI,HCT-15 colon,> 100 µM
same,GI50,SK-MEL-2 melanoma,0.737 µM
same,TGI,SK-MEL-2 melanoma,55.5 µM
same,GI50,RXF 393 renal,1.11 µM
same,TGI,RXF 393 renal,5.01 µM
same,GI50,A549 NSCLC,7.6 µM
same,TGI,A549 NSCLC,28.8 µM
same,GI50,A498 renal,0.423 µM
same,TGI,A498 renal,2.78 µM
same,GI50,MDA-MB-231 breast,4.97 µM
same,TGI,MDA-MB-231 breast,81.6 µM
same,GI50,MCF7 breast,4.61 µM
same,TGI,MCF7 breast,> 100 µM
same,GI50,LOX IMVI melanoma,1.86 µM
same,TGI,LOX IMVI melanoma,10.1 µM
same,GI50,MOLT-4 leukemia,15.5 µM
same,TGI,MOLT-4 leukemia,42.7 µM
same,GI50,UO-31 renal,0.854 µM
same,TGI,UO-31 renal,24.6 µM
same,GI50,M14 melanoma,9.16 µM
same,TGI,M14 melanoma,28.9 µM
same,GI50,HCC-2998 colon,11.7 µM
same,TGI,HCC-2998 colon,48.7 µM
same,GI50,UACC-257 melanoma,16.3 µM
same,TGI,UACC-257 melanoma,52.6 µM
same,GI50,OVCAR-4 ovarian,4.04 µM
same,TGI,OVCAR-4 ovarian,> 100 µM
same,GI50,BT-549 breast,3.85 µM
same,TGI,BT-549 breast,16.2 µM
same,GI50,TK-10 renal,0.909 µM
same,TGI,TK-10 renal,35.1 µM
same,GI50,OVCAR-8 ovarian,8.63 µM
same,TGI,OVCAR-8 ovarian,63.2 µM
same,GI50,KM12 colon,0.479 µM
same,TGI,KM12 colon,23.1 µM
same,GI50,SK-OV-3 ovarian,2.62 µM
same,TGI,SK-OV-3 ovarian,34.3 µM
same,GI50,COLO 205 colon,1.83 µM
same,TGI,COLO 205 colon,5.41 µM
same,GI50,NCI-H460 lung,4.42 µM
same,TGI,NCI-H460 lung,26.4 µM
same,GI50,CAKI-1 renal,0.97 µM
same,TGI,CAKI-1 renal,17.8 µM
same,GI50,RPMI-8226 leukemia,3.4 µM
same,TGI,RPMI-8226 leukemia,13.6 µM
same,GI50,HT29 colon,2.49 µM
same,TGI,HT29 colon,21.2 µM
same,GI50,OVCAR-5 ovarian,3.25 µM
same,TGI,OVCAR-5 ovarian,> 100 µM
same,GI50,HS 578T breast,1.16 µM
same,TGI,HS 578T breast,5.42 µM
same,GI50,HL-60(TB) leukemia,12 µM
same,TGI,HL-60(TB) leukemia,34.1 µM
same,GI50,SF-295 CNS,5.98 µM
same,TGI,SF-295 CNS,> 100 µM
same,GI50,T-47D breast,4.83 µM
same,TGI,T-47D breast,70.7 µM
same,GI50,MALME-3M melanoma,21.9 µM
same,TGI,MALME-3M melanoma,62.2 µM
same,GI50,SNB-75 CNS,0.727 µM
same,TGI,SNB-75 CNS,5.66 µM
same,GI50,OVCAR-3 ovarian,7.69 µM
same,TGI,OVCAR-3 ovarian,37.3 µM
same,GI50,SK-MEL-5 melanoma,7.94 µM
same,TGI,SK-MEL-5 melanoma,21.4 µM
same,GI50,IGROV1 ovarian,0.638 µM
same,TGI,IGROV1 ovarian,35.5 µM
same,GI50,U251 CNS,2.13 µM
same,TGI,U251 CNS,23.5 µM
same,GI50,NCI-H522 lung,2.82 µM
same,TGI,NCI-H522 lung,30.7 µM
same,GI50,786-0 renal,1.95 µM
same,TGI,786-0 renal,14.2 µM
same,GI50,K-562 leukemia,2.94 µM
same,TGI,K-562 leukemia,> 100 µM
same,GI50,SF-539 CNS,1.92 µM
same,TGI,SF-539 CNS,9.7 µM
same,GI50,SR leukemia,0.446 µM
same,TGI,SR leukemia,20.2 µM
same,GI50,SF-268 CNS,3.54 µM
same,TGI,SF-268 CNS,39 µM
same,GI50,MDA-MB-435,0.829 µM
same,TGI,MDA-MB-435,62.3 µM
same,GI50,SW-620 colon,2.1 µM
same,TGI,SW-620 colon,45.2 µM
same,GI50,HCT-116 colon,2.13 µM
same,TGI,HCT-116 colon,21.3 µM
same,GI50,SN12C renal,2.24 µM
same,TGI,SN12C renal,52 µM

# From PubChem BioAssay (NCI)
